The target of the experiment is human F508del-CFTR (Homo sapiens, UniProt P13569, DEL508-508). The experiment can be described thus: F508del-CFTR cell surface expression (corrector activity), DiscoveRx ß-galactosidase complementation chemiluminescence assay in recombinant U2OS cell line.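 On all read-outs here: U2OS cells co-expressing ProLink-tagged F508del-CFTR and a membrane-anchored enzyme acceptor, where more surface CFTR restores β-galactosidase activity measured by chemiluminescence.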 As to conditions: U2OS cell line, 16h compound incubation; for EC50: EC50, F508del-CFTR cell surface expression, geomean values; for Emax: U2OS, in relation to the Emax of the corrector lumacaftor (=100%), arithmetic mean values.
human F508del-CFTR, sequence (P13569 with tags, fused parts or gaps DEL508-508): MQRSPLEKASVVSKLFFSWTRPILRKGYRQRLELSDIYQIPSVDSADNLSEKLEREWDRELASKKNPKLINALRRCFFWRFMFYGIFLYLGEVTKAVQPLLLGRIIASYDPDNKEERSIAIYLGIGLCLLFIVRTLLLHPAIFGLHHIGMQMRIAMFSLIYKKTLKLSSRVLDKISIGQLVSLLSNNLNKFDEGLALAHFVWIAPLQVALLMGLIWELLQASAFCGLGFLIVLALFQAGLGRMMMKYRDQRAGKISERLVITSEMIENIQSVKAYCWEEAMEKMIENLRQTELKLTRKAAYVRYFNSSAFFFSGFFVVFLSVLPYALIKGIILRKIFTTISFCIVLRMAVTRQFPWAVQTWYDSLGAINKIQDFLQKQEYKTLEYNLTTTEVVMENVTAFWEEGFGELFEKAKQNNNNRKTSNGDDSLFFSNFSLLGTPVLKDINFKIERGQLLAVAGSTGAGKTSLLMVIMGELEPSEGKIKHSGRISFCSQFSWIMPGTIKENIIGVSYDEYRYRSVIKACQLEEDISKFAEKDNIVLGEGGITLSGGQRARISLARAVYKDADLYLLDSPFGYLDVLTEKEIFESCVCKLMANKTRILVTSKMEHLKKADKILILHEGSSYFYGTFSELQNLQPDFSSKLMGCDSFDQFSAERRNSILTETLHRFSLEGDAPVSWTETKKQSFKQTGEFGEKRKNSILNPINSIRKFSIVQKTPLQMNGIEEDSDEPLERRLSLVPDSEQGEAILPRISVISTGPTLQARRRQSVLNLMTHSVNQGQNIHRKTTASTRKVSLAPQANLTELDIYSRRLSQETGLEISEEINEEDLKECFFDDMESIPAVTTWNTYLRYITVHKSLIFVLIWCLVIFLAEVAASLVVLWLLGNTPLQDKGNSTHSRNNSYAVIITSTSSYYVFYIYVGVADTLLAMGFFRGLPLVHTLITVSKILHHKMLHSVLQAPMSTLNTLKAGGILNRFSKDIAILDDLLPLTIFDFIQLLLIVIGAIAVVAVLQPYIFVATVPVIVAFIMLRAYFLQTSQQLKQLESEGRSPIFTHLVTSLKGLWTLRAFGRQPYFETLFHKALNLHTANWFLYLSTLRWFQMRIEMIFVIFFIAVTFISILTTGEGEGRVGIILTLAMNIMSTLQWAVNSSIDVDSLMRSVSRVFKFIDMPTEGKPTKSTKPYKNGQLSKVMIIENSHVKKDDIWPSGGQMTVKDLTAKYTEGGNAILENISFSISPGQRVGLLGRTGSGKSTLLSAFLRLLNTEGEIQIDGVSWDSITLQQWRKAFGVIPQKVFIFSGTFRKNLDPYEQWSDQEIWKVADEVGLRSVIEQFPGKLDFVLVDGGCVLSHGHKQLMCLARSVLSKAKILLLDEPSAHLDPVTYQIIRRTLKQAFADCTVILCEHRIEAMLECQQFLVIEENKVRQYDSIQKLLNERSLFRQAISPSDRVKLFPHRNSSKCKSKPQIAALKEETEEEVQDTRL

What is called EC50 is the concentration that produces a half-maximal response. What is called Emax is the size of the effect at its maximum, as opposed to the concentration needed.

On to `CC(C)C[C@H]1C(=O)N2CCCC[C@@H]2C(=O)N[C@H](Cc2ccccc2)COc2cnc3ccccc3c2C(=O)N[C@H](C(=O)NCCc2cc(C3CC3)on2)CC(=O)N1C` [Example 105, (9S,13S,19aR,22R)-22-benzyl-N-(2-(5-cyclopropylisoxazol-3-yl)ethyl)-13-isobutyl-12-methyl-7,11,14,20-tetraoxo-7,8,9,10,11,12,13,14,17,18,19,19a,20,21,22,23-hexadecahydro-16H-pyrido[2′,1′:6,7][1]oxa[4,7,10,14]tetraazacycloheptadecino[17,16-c]quinoline-9-carboxamide], for which the EC50 was found to be 173 nM and the Emax is 351%.

On to `CC(C)C[C@H]1C(=O)N2CCOC[C@@H]2C(=O)N[C@H](Cc2ccccc2)COc2cnc3ccccc3c2C(=O)N[C@H](C(=O)NCCc2cc(C3CC3)on2)CC(=O)N1C` [Example 106, (9S,13S,19aR,22R)-22-benzyl-N-(2-(5-cyclopropylisoxazol-3-yl)ethyl)-13-isobutyl-12-methyl-7,11,14,20-tetraoxo-7,8,9,10,11,12,13,14,16,17,19,19a,20,21,22,23-hexadecahydro-[1,4]oxazino[3′,4′:6,7][1]oxa[4,7,10,14]tetraazacycloheptadecino[17,16-c]quinoline-9-carboxamide], for which the EC50 came to 864 nM and the Emax came to 308%.

`CC(C)C[C@H]1C(=O)N2CCOC[C@@H]2C(=O)N[C@H](Cc2ccccc2)COc2cnc3ccccc3c2C(=O)N[C@H](C(=O)NCCc2cc(C(C)(C)C)on2)CC(=O)N1C` [Example 107, (9S,13S,19aR,22R)-22-benzyl-N-(2-(5-(tert-butyl)isoxazol-3-yl)ethyl)-13-isobutyl-12-methyl-7,11,14,20-tetraoxo-7,8,9,10,11,12,13,14,16,17,19,19a,20,21,22,23-hexadecahydro-[1,4]oxazino[3′,4′:6,7][1]oxa[4,7,10,14]tetraazacycloheptadecino[17,16-c]quinoline-9-carboxamide]: the EC50 amounted to 794 nM and the Emax amounted to 257%.

In the case of `CC(C)C[C@H]1C(=O)N(C)C2(CC2)C(=O)N[C@H](Cc2ccccc2)COc2cnc3ccccc3c2C(=O)N[C@H](C(=O)NCCc2ccccc2)CC(=O)N1C` [Example 108, (3′S,7′S,13′R)-13′-benzyl-7′-isobutyl-6′,9′-dimethyl-1′,5′,8′,11′-tetraoxo-N-phenethyl-2′,3′,4′,5′,6′,7′,8′,9′,11′,12′,13′,14′-dodecahydro-1′H-spiro[cyclopropane-1,10′-[1]oxa[4,7,10,14]tetraazacycloheptadecino[17,16-c]quinoline]-3′-carboxamide], the EC50 was determined as 581 nM and the Emax is 222%.

Consider `COc1cc(CCNC(=O)[C@@H]2CC(=O)N(C)[C@@H](CC(C)C)C(=O)N(C)C3(CC3)C(=O)N[C@H](Cc3ccccc3)COc3cnc4ccccc4c3C(=O)N2)cc(OC)c1` [Example 109, (3′S,7′S,13′R)-13′-benzyl-N-(3,5-dimethoxyphenethyl)-7′-isobutyl-6′,9′-dimethyl-1′,5′,8′,11′-tetraoxo-2′,3′,4′,5′,6′,7′,8′,9′,11′,12′,13′,14′-dodecahydro-1′H-spiro[cyclopropane-1,10′-[1]oxa[4,7,10,14]tetraazacycloheptadecino[17,16-c]quinoline]-3′-carboxamide], for which the EC50 came to 231 nM and the Emax is 321%.

For `CC(C)C[C@H]1C(=O)N(C)C2(CC2)C(=O)N[C@H](Cc2ccccc2)COc2cnc3ccccc3c2C(=O)N[C@H](C(=O)NCCc2c(F)cccc2F)CC(=O)N1C` [Example 110, (3′S,7′S,13′R)-13′-benzyl-N-(2,6-difluorophenethyl)-7′-isobutyl-6′,9′-dimethyl-1′,5′,8′,11′-tetraoxo-2′,3′,4′,5′,6′,7′,8′,9′,11′,12′,13′,14′-dodecahydro-1′H-spiro[cyclopropane-1,10′-[1]oxa[4,7,10,14]tetraazacycloheptadecino[17,16-c]quinoline]-3′-carboxamide], the EC50 is 478 nM and the Emax worked out at 261%.

For `COc1ccc(CCNC(=O)[C@@H]2CC(=O)N(C)[C@@H](CC(C)C)C(=O)N(C)C3(CC3)C(=O)N[C@H](Cc3ccccc3)COc3cnc4ccccc4c3C(=O)N2)cc1` [Example 111, (3′S,7′S,13′R)-13′-benzyl-7′-isobutyl-N-(4-methoxyphenethyl)-6′,9′-dimethyl-1′,5′,8′,11′-tetraoxo-2′,3′,4′,5′,6′,7′,8′,9′,11′,12′,13′,14′-dodecahydro-1′H-spiro[cyclopropane-1,10′-[1]oxa[4,7,10,14]tetraazacycloheptadecino[17,16-c]quinoline]-3′-carboxamide], the EC50 was 392 nM and the Emax is 242%.

Regarding `Cc1cccc(CCNC(=O)[C@@H]2CC(=O)N(C)[C@@H](CC(C)C)C(=O)N(C)C3(CC3)C(=O)N[C@H](Cc3ccccc3)COc3cnc4ccccc4c3C(=O)N2)c1` [Example 112, (3′S,7′S,13′R)-13′-benzyl-7′-isobutyl-6′,9′-dimethyl-N-(3-methylphenethyl)-1′,5′,8′,11′-tetraoxo-2′,3′,4′,5′,6′,7′,8′,9′,11′,12′,13′,14′-dodecahydro-1′H-spiro[cyclopropane-1,10′-[1]oxa[4,7,10,14]tetraazacycloheptadecino[17,16-c]quinoline]-3′-carboxamide], the EC50 stood at 817 nM and the Emax amounted to 200%.

As for `CC(C)C[C@H]1C(=O)N(C)C2(CC2)C(=O)N[C@H](Cc2ccccc2)COc2cnc3ccccc3c2C(=O)N[C@H](C(=O)NCCc2ccc(F)c(F)c2)CC(=O)N1C` [Example 113, (3′S,7′S,13′R)-13′-benzyl-N-(3,4-difluorophenethyl)-7′-isobutyl-6′,9′-dimethyl-1′,5′,8′,11′-tetraoxo-2′,3′,4′,5′,6′,7′,8′,9′,11′,12′,13′,14′-dodecahydro-1′H-spiro[cyclopropane-1,10′-[1]oxa[4,7,10,14]tetraazacycloheptadecino[17,16-c]quinoline]-3′-carboxamide], the EC50 turned out to be 369 nM and the Emax is 158%.

Take `CCc1nc(CCNC(=O)[C@@H]2CC(=O)N(C)[C@@H](CC(C)C)C(=O)N(C)C3(CC3)C(=O)N[C@H](Cc3ccccc3)COc3cnc4ccccc4c3C(=O)N2)no1` [Example 114, (3′S,7′S,13′R)-13′-benzyl-N-(2-(5-ethyl-1,2,4-oxadiazol-3-yl)ethyl)-7′-isobutyl-6′,9′-dimethyl-1′,5′,8′,11′-tetraoxo-2′,3′,4′,5′,6′,7′,8′,9′,11′,12′,13′,14′-dodecahydro-1′H-spiro[cyclopropane-1,10′-[1]oxa[4,7,10,14]tetraazacycloheptadecino[17,16-c]quinoline]-3′-carboxamide]: the EC50 came to 924 nM and the Emax was determined as 220%.

For the compound `CC(C)C[C@H]1C(=O)N(C)C2(CC2)C(=O)N[C@H](Cc2ccccc2)COc2cnc3ccccc3c2C(=O)N[C@H](C(=O)NCCc2noc(C3CC3)n2)CC(=O)N1C` [Example 115, (3′S,7′S,13′R)-13′-benzyl-N-(2-(5-cyclopropyl-1,2,4-oxadiazol-3-yl)ethyl)-7′-isobutyl-6′,9′-dimethyl-1′,5′,8′,11′-tetraoxo-2′,3′,4′,5′,6′,7′,8′,9′,11′,12′,13′,14′-dodecahydro-1′H-spiro[cyclopropane-1,10′-[1]oxa[4,7,10,14]tetraazacycloheptadecino[17,16-c]quinoline]-3′-carboxamide], the 50% effective concentration (EC50) stood at 380 nM and the Emax amounted to 250%.

As to `CC(C)C[C@H]1C(=O)N(C)C2(CC2)C(=O)N[C@H](Cc2ccccc2)COc2cnc3ccccc3c2C(=O)N[C@H](C(=O)NCCc2noc(C(C)(C)C)n2)CC(=O)N1C` [Example 116, (3′S,7′S,13′R)-13′-benzyl-N-(2-(5-(tert-butyl)-1,2,4-oxadiazol-3-yl)ethyl)-7′-isobutyl-6′,9′-dimethyl-1′,5′,8′,11′-tetraoxo-2′,3′,4′,5′,6′,7′,8′,9′,11′,12′,13′,14′-dodecahydro-1′H-spiro[cyclopropane-1,10′-[1]oxa[4,7,10,14]tetraazacycloheptadecino[17,16-c]quinoline]-3′-carboxamide], the EC50 was determined as 554 nM and the Emax was 253%.

Turning to `Cc1cc(CCNC(=O)[C@@H]2CC(=O)N(C)[C@@H](CC(C)C)C(=O)N(C)C3(CC3)C(=O)N[C@H](Cc3ccccc3)COc3cnc4ccccc4c3C(=O)N2)no1` [Example 117, (3′S,7′S,13′R)-13′-benzyl-7′-isobutyl-6′,9′-dimethyl-N-(2-(5-methylisoxazol-3-yl)ethyl)-1′,5′,8′,11′-tetraoxo-2′,3′,4′,5′,6′,7′,8′,9′,11′,12′,13′,14′-dodecahydro-1′H-spiro[cyclopropane-1,10′-[1]oxa[4,7,10,14]tetraazacycloheptadecino[17,16-c]quinoline]-3′-carboxamide], the EC50 turned out to be 776 nM and the Emax amounted to 237%.

As for `CC(C)C[C@H]1C(=O)N(C)C2(CC2)C(=O)N[C@H](Cc2ccccc2)COc2cnc3ccccc3c2C(=O)N[C@H](C(=O)NCCc2cc(C3CC3)on2)CC(=O)N1C` [Example 118, (3′S,7′S,13′R)-13′-benzyl-N-(2-(5-cyclopropylisoxazol-3-yl)ethyl)-7′-isobutyl-6′,9′-dimethyl-1′,5′,8′,11′-tetraoxo-2′,3′,4′,5′,6′,7′,8′,9′,11′,12′,13′,14′-dodecahydro-1′H-spiro[cyclopropane-1,10′-[1]oxa[4,7,10,14]tetraazacycloheptadecino[17,16-c]quinoline]-3′-carboxamide], the EC50 is 329 nM and the Emax was found to be 265%.

Regarding `CC(C)C[C@H]1C(=O)N(C)C2(CC2)C(=O)N[C@H](Cc2ccccc2)COc2cnc3ccccc3c2C(=O)N[C@H](C(=O)NCCc2cc(C(C)(C)C)on2)CC(=O)N1C` [Example 119, (3′S,7′S,13′R)-13′-benzyl-N-(2-(5-(tert-butyl)isoxazol-3-yl)ethyl)-7′-isobutyl-6′,9′-dimethyl-1′,5′,8′,11′-tetraoxo-2′,3′,4′,5′,6′,7′,8′,9′,11′,12′,13′,14′-dodecahydro-1′H-spiro[cyclopropane-1,10′-[1]oxa[4,7,10,14]tetraazacycloheptadecino[17,16-c]quinoline]-3′-carboxamide], the EC50 amounted to 328 nM and the Emax is 248%.

The values above are taken from patent US20240208992A1, “MACROCYCLES AS CFTR MODULATORS” (Idorsia Pharmaceuticals Ltd, priority 2021, published 2024).
